From US11040028B2, “Penicinotam derivative, preparation method and use thereof” (OCEAN UNIVERSITY OF CHINA, priority 2017, dated 2021)
Read-outs that look alike come from different tables or passages of the source.

Experiments:
Format in all cases: cell-based
BHK-21 cells = assay: Anti-fibrosis activity test: inhibition of BHK-21 cell proliferation (CCK-8); details: Mesocricetus auratus, BHK-21, 48 h
Experimental: (§1) BHK-21 cells in exponential growth phase were selected. After the fusion growth reached 85-95%, normal passage method was utilized to digest and collect the cells, followed by cell counting and adjusting the cell density to 2×10^4 cells/mL. The cells were seeded into 96-well plates, 100 μL/well, and were incubated under the condition of 5% CO2 at 37° C.
(§2) The supernatant was removed after the cells had adhered to the wall for 24 hours. The culture solution containing the prepared compounds at different concentrations were added to the wells, 100 μL/well, each concentration in triplicate. The cells were subcultured for 48 hours after administration. Commercially available pirfenidone was employed as the positive control.
(§3) 10 μL of CCK-8 solution ( 1/10 of the volume of the culture solution) was added to each well 48 hours after the administration, and incubated for 2 hours. The absorbance (A) of each well was determined by a microplate reader at 450 nm wavelength. The inhibition rate against cell proliferation for each compound was calculated based on A, wherein inhibition rate against cell proliferation (inhibition ratio, IR)=(1−value of experimental group (Ai)/value of blank control group (Ao))×100% and the IC50 value of each compound was calculated by the data processing software.

[1] = system: human dermal fibroblasts CCC-ESF-1; assay: Anti-fibrosis activity test: inhibition of proliferation of human dermal fibroblasts CCC-ESF-1 (CCK-8); details: Fibroblast
Experimental: as §1, §2, §3
(§4) Using the same protocol for the cell experiments, the inhibitory activity of the test compounds against the proliferation of human lung fibroblasts HFL1, human hepatic stellate cells LX-2, human fibrosarcoma cells HT-1080, human dermal fibroblasts CCC-ESF-1, human embryonic lung fibroblast IMR-90, cardiac fibroblast RAT-iCell-C002 was assayed.

[2] = system: human embryonic lung fibroblast IMR-90; assay: Anti-fibrosis activity test: inhibition of proliferation of human embryonic lung fibroblast IMR-90 (CCK-8)
Experimental: as §1, §2, §3, §4

[3] = system: human hepatic stellate cells LX-2; assay: Anti-fibrosis activity test: inhibition of proliferation of human hepatic stellate cells LX-2 (CCK-8); details: Homo sapiens, 48 h
Experimental: as §1, §2, §3, §4

[4] = system: human lung fibroblasts HFL1; assay: Anti-fibrosis activity test: inhibition of proliferation of human lung fibroblasts HFL1 (CCK-8); details: Homo sapiens, HFL1, 48 h
Experimental: as §1, §2, §3, §4

[5] = system: mouse macrophages (RAW264.7); assay: Lipopolysaccharide-induced NO secretion in macrophages (Griess); details: RAW264.7, LPS 1 μg/ml, a/b isomers given as first/second symbol, read-out: IC50 (μM), inhibition of lipopolysaccharide-induced NO secretion in macrophages
Experimental: The effects of the compounds of the present application on the lipopolysaccharide-induced NO secretion in macrophage was tested Principle: Anti-inflammatory drug activity screening is to detect the inhibitory effect of compounds on NO production in the mouse macrophages (RAW264.7). When immune cells are stimulated by microbial endotoxin, inflammatory mediators, etc., a large amount of induced NO synthase (iNOS) is produced, and thus NO is generated for immune response. Accordingly, the inhibition of NO production can serve as a direct indicator of the anti-inflammatory activity of the compound. The activity of the compound to inhibit NO production at the cellular level is directly evaluated in the abovementioned test model, thereby reflecting the anti-inflammatory activity of the compound. In this experiment, the content of NO in the medium was detected by Gris kit (Molecular probes, G-7921). Macrophages (Raw264.7) were cultured in DMEM medium containing 10% fetal bovine serum, with the cell concentration adjusted. The cells were seeded in 24-well cell culture plates, cultured in an incubator, and the test samples in different concentrations were added every other day. The blank medium was used as a blank control, and commercially available indomethacin and resveratrol were employed as positive controls. After the addition of lipopolysaccharide (LPS, 1 μg/ml), incubation was performed for 24 hours. Then the supernatant culture solution was taken, to […] reagent was added, and the absorbance value was measured by a microplate reader at 548 nm. Inhibition rate=([…])×100%.

[6] = system: human fibrosarcoma cells HT-1080; assay: Anti-fibrosis activity test: inhibition of proliferation of human fibrosarcoma cells HT-1080 (CCK-8); details: Homo sapiens, HT-1080, 48 h
Experimental: as §1, §2, §3, §4

[7] = system: cardiac fibroblast RAT-iCell-C002; assay: Anti-fibrosis activity test: inhibition of proliferation of cardiac fibroblast RAT-iCell-C002 (CCK-8)
Experimental: as §1, §2, §3, §4

[8] = CCK-8, 48 hours after administration
[9] = human dermal fibroblasts CCC-ESF-1, CCK-8, 48 hours
[10] = human embryonic lung fibroblast IMR-90, CCK-8, 48 hours
[11] = human hepatic stellate cells LX-2, CCK-8, 48 hours
[12] = human lung fibroblasts HFL1, CCK-8, 48 hours
[13] = human fibrosarcoma cells HT-1080, CCK-8, 48 hours
[14] = Cardiac fibroblast, 48 h, cardiac fibroblast RAT-iCell-C002, CCK-8, 48 hours
[15] = cardiac fibroblast RAT-iCell-C002, CCK-8, 48 hours
[16] = Homo sapiens, CCC-ESF-1 cells, 48 h, CCK-8
[17] = Homo sapiens, IMR-90 cells, 48 h, CCK-8
[18] = Cardiac fibroblast, 48 h, RAT-iCell-C002 cells, CCK-8

Measured: IC50

O=C1c2c(nc3ccc(C(F)(F)F)cc3c2Oc2ccc(F)cc2)-c2cccn21 [Compound 259b, 9-(4-fluorophenoxy)-7-(trifluoromethyl)-10H-pyrrolizino[1,2-b]quinolin-10-one]
< 0.05 mM: [2]; [10]
0.05 to 5 mM: BHK-21 cells; [8] | [3]; [11] | [4]; [12] | [6]; [13] | [7]; [14]
5 to 20 mM: [1]; [9]
1 to 10 µM: [5]; Mus musculus, RAW264.7, 24 h

O=C1c2c(n(Cc3ccc(Cl)cc3)c3c(C(F)(F)F)c(N4CCNCC4)ccc3c2=O)-c2cccn21 [Compound 487a, 4-(4-Chlorobenzyl)-6-(piperazin-1-yl)-5-(trifluoromethyl)-9H-pyrrolizino[1,2-b]quinoline-9,10(4H)-dione]
0.1 to 1 µM: [5]; 24 hours
< 0.05 mM: [7]; [15]

Oc1ccc(C=Cc2cc(O)cc(O)c2)cc1 [resveratrol, reference compound]
1 to 10 µM: [5]; Mus musculus, RAW264.7, 24 h

O=C1c2c(nc3c(C(F)(F)F)c(N4CCNCC4)ccc3c2OCc2ccc(Cl)cc2)-c2cccn21 [Compound 487b, 9-((4-chlorobenzyl)oxy)-6-(piperazin-1-yl)-5-(trifluoromethyl)-10H-pyrrolizino[1,2-b]quinolin-10-one]
0.05 to 5 mM: [7]; [15]
10 to 50 µM: [5]; 24 hours

COc1ccc2c(c1)c(CC(=O)O)c(C)n2C(=O)c1ccc(Cl)cc1 [indomethacin, reference compound]
10 to 50 µM: [5]; Mus musculus, RAW264.7, 24 h

N#Cc1cc2c(OCc3ccc(Cl)cc3)c3c(nc2cc1N1CCNCC1)-c1cccn1C3=O [Compound 640b, 9-((4-chlorobenzyl)oxy)-10-oxo-6-(piperazin-1-yl)-10H-pyrrolizino[1,2-b]quinoline-7-carbonitrile]
0.05 to 5 mM: BHK-21 cells; [8] | [1]; [9] | [2]; [10] | [3]; [11] | [4]; [12] | [6]; [13] | [7]; [14]

CC(C)CCn1c2c(c(=O)c3cc(F)ccc31)C(=O)n1cccc1-2 [Compound 105a, 7-Fluoro-4-isopentyl-9H-pyrrolizino[1,2-b]quinoline-9,10(4H)-dione]
0.05 to 5 mM: BHK-21 cells; [8] | [1]; [9] | [2]; [10] | [3]; [11] | [4]; [12] | [6]; [13] | [7]; [14]

Cc1ccc2n1C(=O)c1c-2[nH]c2ccccc2c1=O [Compound 800a, 1-Methyl-9H-pyrrolizino[1,2-b]quinoline-9,10(4H)-dione]
0.05 to 5 mM: BHK-21 cells; 48 h, CCK-8 | [1]; [16] | [2]; [17] | [3]; LX-2, 48 h, LX-2 cells, CCK-8 | [4]; HFL1 cells, 48 h, CCK-8 | [6]; HT-1080 cells, 48 h, CCK-8 | [7]; [18]

O=C1c2c(nc3cc(Cl)ccc3c2OCc2ccccc2Cl)-c2cccn21 [Compound 510b, 6-chloro-9-((2-chlorobenzyl)oxy)-10H-pyrrolizino[1,2-b]quinolin-10-one]
0.05 to 5 mM: BHK-21 cells; [8] | [1]; [9] | [2]; [10] | [3]; [11] | [4]; [12] | [6]; [13] | [7]; [14]

Cc1cc2n(c1)C(=O)c1c-2[nH]c2ccccc2c1=O [Compound 801a, 2-Methyl-9H-pyrrolizino[1,2-b]quinoline-9,10(4H)-dione]
0.05 to 5 mM: [1]; [16] | [2]; [17] | [3]; LX-2, 48 h, LX-2 cells, CCK-8 | [4]; HFL1 cells, 48 h, CCK-8 | [6]; HT-1080 cells, 48 h, CCK-8 | [7]; [18]
< 0.05 mM: BHK-21 cells; 48 h, CCK-8

CC(C)CCOc1c2c(nc3cc(N4CCNCC4)c(F)cc13)-c1cccn1C2=O [Compound 347b, 7-fluoro-9-(isopentyloxy)-6-(piperazin-1-yl)-10H-pyrrolizino[1,2-b]quinolin-10-one]
0.05 to 5 mM: BHK-21 cells; [8] | [1]; [9] | [2]; [10] | [3]; [11] | [4]; [12] | [6]; [13] | [7]; [14]

O=C1c2c(nc3cc(N4CCNCC4)c(F)cc3c2OCc2ccc(Br)cc2)-c2cccn21 [Compound 633b, 9-((4-bromobenzyl)oxy)-7-fluoro-6-(piperazin-1-yl)-10H-pyrrolizino[1,2-b]quinolin-10-one]
0.05 to 5 mM: BHK-21 cells; [8] | [1]; [9] | [2]; [10] | [3]; [11] | [4]; [12] | [6]; [13] | [7]; [14]

O=C1c2c(nc3cc(N4CCNCC4)cc(F)c3c2OCc2ccc(F)cc2)-c2cccn21 [Compound 646b, 8-fluoro-9-((4-fluorobenzyl)oxy)-6-(piperazin-1-yl)-10H-pyrrolizino[1,2-b]quinolin-10-one]
0.05 to 5 mM: BHK-21 cells; [8] | [1]; [9] | [2]; [10] | [3]; [11] | [4]; [12] | [6]; [13] | [7]; [14]

N#Cc1cc2c(OCc3ccc(C(F)(F)F)cc3)c3c(nc2cc1N1CCNCC1)-c1cccn1C3=O [Compound 642b, 10-oxo-6-(piperazin-1-yl)-9-((4-(trifluoromethyl)benzyl)oxy)-10H-pyrrolizino[1,2-b]quinoline-7-carbonitrile]
0.05 to 5 mM: BHK-21 cells; [8] | [1]; [9] | [2]; [10] | [3]; [11] | [4]; [12] | [6]; [13] | [7]; [14]

CC(C)CCOc1c2c(nc3ccc(F)cc13)-c1cccn1C2=O [Compound 105b, 7-fluoro-9-(isopentyloxy)-10H-pyrrolizino[1,2-b]quinolin-10-one]
0.05 to 5 mM: BHK-21 cells; [8] | [1]; [9] | [2]; [10] | [3]; [11] | [4]; [12] | [6]; [13] | [7]; [14]

O=C1c2c([nH]c3cc(N4CCNCC4)c(F)cc3c2=O)-c2cccn21 [Compound 346a, 7-Fluoro-6-(piperazin-1-yl)-9H-pyrrolizino[1,2-b]quinoline-9,10(4H)-dione]
0.05 to 5 mM: BHK-21 cells; [8] | [1]; [9] | [2]; [10] | [3]; [11] | [4]; [12] | [6]; [13] | [7]; [14]

O=C1c2c(nc3cc(N4CCNCC4)c(F)cc3c2OCc2ccc(Cl)cc2)-c2cccn21 [Compound 632b, 9-((4-chlorobenzyl)oxy)-7-fluoro-6-(piperazin-1-yl)-10H-pyrrolizino[1,2-b]quinolin-10-one]
0.05 to 5 mM: BHK-21 cells; [8] | [1]; [9] | [2]; [10] | [3]; [11] | [4]; [12] | [6]; [13] | [7]; [14]

O=C1c2c(nc3cc(N4CCNCC4)c(F)cc3c2OCc2cc(C(F)(F)F)cc(C(F)(F)F)c2)-c2cccn21 [Compound 639b, 9-((3,5-bis(trifluoromethyl)benzyl)oxy)-7-fluoro-6-(piperazin-1-yl)-10H-pyrrolizino[1,2-b]quinolin-10-one]
0.05 to 5 mM: BHK-21 cells; [8] | [1]; [9] | [2]; [10] | [3]; [11] | [4]; [12] | [6]; [13] | [7]; [14]
